Measurements from ChEMBL document CHEMBL1201862, “PubChem BioAssay data set” (2004).
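Cells were grown in 96-well plates and exposed to each compound for 48 hours at five concentrations; endpoints were interpolated linearly between bracketing concentrations, or set to the highest concentration if not reached. GI50 is the concentration that inhibits growth by half.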 Activity calls are given as the source filed them. Rule as the data show it: active = GI50 up to about 1.1 µM and inactive = higher.

Legend:
Test in all cases: NCI anticancer screen, dose series, 48 h
SK-MEL-2 = system: SK-MEL-2
U-251 = system: U-251
MCF7 = system: MCF7
PC-3 = system: PC-3
TK-10 = system: TK-10
NCI-H460 = system: NCI-H460
NCI-H522 = system: NCI-H522
BT-549 = system: BT-549
MDA-MB-231 = system: MDA-MB-231
MDA-MB-435 = system: MDA-MB-435
SN12C = system: SN12C
SW-620 = system: SW-620
HCT-15 = system: HCT-15
HOP-92 = system: HOP-92
SNB-19 = system: SNB-19
MOLT-4 = system: MOLT-4
SF-539 = system: SF-539
HOP-62 = system: HOP-62
LOX IMVI = system: LOX IMVI

Measured: GI50

CCOP(=O)(OCC)/C(C#N)=C/c1cnc[nH]1
> 100 µM: HCT-15
inactive: SK-MEL-2 > 100 µM | U-251 > 100 µM | MCF7 > 100 µM | PC-3 > 100 µM | TK-10 > 100 µM | NCI-H460 > 100 µM | NCI-H522 > 100 µM | BT-549 > 100 µM | MDA-MB-231 > 100 µM | MDA-MB-435 > 100 µM | SN12C > 100 µM | SW-620 > 100 µM | HOP-92 > 100 µM | SNB-19 > 100 µM | MOLT-4 > 100 µM | SF-539 > 100 µM | HOP-62 > 100 µM | LOX IMVI > 100 µM

CCCC[C@@H](C)/C=C1\CN2CCC[C@H]2[C@@](C)(OCc2ccccc2)[C@@H]1O
> 50 µM: HCT-15
inactive: SK-MEL-2 > 50 µM | U-251 > 34.4 µM | MCF7 > 50 µM | PC-3 > 50 µM | TK-10 > 38.5 µM | NCI-H460 > 16.7 µM | NCI-H522 > 27.9 µM | BT-549 > 50 µM | MDA-MB-231 > 50 µM | MDA-MB-435 > 50 µM | SN12C > 50 µM | SW-620 > 50 µM | HOP-92 > 42 µM | SNB-19 > 23.8 µM | MOLT-4 > 41.9 µM | SF-539 > 22.2 µM | HOP-62 5.98 µM | LOX IMVI > 50 µM

Cc1ccc(S(=O)(=O)N2CCN(CCO)CCN(S(=O)(=O)c3ccc(C)cc3)CCN(CCO)CC2)cc1
inactive: SK-MEL-2 16.5 µM | U-251 25.4 µM | MCF7 13.4 µM | PC-3 33 µM | TK-10 28.2 µM | NCI-H460 14.3 µM | NCI-H522 18.7 µM | BT-549 60.8 µM | MDA-MB-231 21.7 µM | MDA-MB-435 15.1 µM | SN12C 45 µM | SW-620 33.7 µM | HOP-92 21.5 µM | SNB-19 37.8 µM | MOLT-4 19.7 µM | SF-539 15.8 µM | HOP-62 27.5 µM | LOX IMVI 13.6 µM
18.6 µM: HCT-15

CC1=NN(C(=O)CC(=O)Nc2cccc(Cl)c2)C(=O)C1/N=N/c1ccc(C(=O)O)cc1 (stereo not drawn)
> 100 µM: HCT-15
inactive: SK-MEL-2 > 100 µM | U-251 > 100 µM | MCF7 > 100 µM | PC-3 > 100 µM | TK-10 > 100 µM | NCI-H460 > 100 µM | NCI-H522 > 100 µM | BT-549 > 100 µM | MDA-MB-231 > 100 µM | MDA-MB-435 > 100 µM | SN12C > 100 µM | SW-620 > 100 µM | HOP-92 27.7 µM | SNB-19 > 100 µM | MOLT-4 78.5 µM | SF-539 > 100 µM | HOP-62 > 100 µM | LOX IMVI 82.4 µM

O=C(CCSC(CC(=O)c1ccc(Cl)cc1)c1ccc(Cl)cc1)Nc1ccc(Cl)cc1 (stereo not drawn)
10.8 µM: HCT-15
inactive: SK-MEL-2 15.5 µM | U-251 9.06 µM | MCF7 3.72 µM | PC-3 14.1 µM | TK-10 14.6 µM | NCI-H460 10.2 µM | NCI-H522 14.5 µM | BT-549 13.5 µM | MDA-MB-231 15.2 µM | MDA-MB-435 12.3 µM | SN12C 12.4 µM | SW-620 2.88 µM | HOP-92 17.6 µM | SNB-19 13.7 µM | MOLT-4 3.01 µM | SF-539 18.4 µM | HOP-62 13.3 µM | LOX IMVI 5.83 µM

CC1=CC(C)C(C)N(CCNS(=O)(=O)c2ccc(C)cc2)c2ccccc21 (stereo not drawn)
inactive: SK-MEL-2 12 µM | U-251 16.5 µM | MCF7 14.2 µM | PC-3 12.5 µM | TK-10 30.5 µM | NCI-H460 12.8 µM | NCI-H522 18.2 µM | BT-549 17.1 µM | MDA-MB-231 13.8 µM | MDA-MB-435 13.5 µM | SN12C 12.6 µM | SW-620 > 10 µM | HOP-92 18.8 µM | SNB-19 > 31.6 µM | MOLT-4 12.2 µM | SF-539 13.4 µM | HOP-62 16.3 µM | LOX IMVI 10.2 µM
18.2 µM: HCT-15

Cc1cc(C)c(S(=O)(=O)N(CCCCCCN)OCCCON(CCCCCCN)S(=O)(=O)c2c(C)cc(C)cc2C)c(C)c1
inactive: SK-MEL-2 1.89 µM | U-251 1.7 µM | MCF7 1.91 µM | PC-3 1.77 µM | TK-10 1.58 µM | NCI-H460 1.64 µM | NCI-H522 1.73 µM | BT-549 1.65 µM | MDA-MB-231 1.8 µM | MDA-MB-435 2.13 µM | SN12C 1.9 µM | SW-620 2.15 µM | HOP-92 1.46 µM | SNB-19 1.62 µM | MOLT-4 2.44 µM | SF-539 2.28 µM | HOP-62 1.8 µM | LOX IMVI 1.7 µM
1.8 µM: HCT-15
